From US9024032B2, “Inhibitors of catechol O-methyl transferase and their use in the treatment of psychotic disorders” (Merck Sharp & Dohme Corp., priority 2010, dated 2015)

What follows are compounds tested against T1, purified human COMT enzyme of the Val158 variant (membrane-bound MB-COMT) (Homo sapiens, UniProt P21964) (assay: MB-COMT inhibition, Esculetin or Fluorescence Polarization assay). Details: not given.
T1 construct: 6xHis or 10xHis (C)
T1 sequence (P21964 1-271): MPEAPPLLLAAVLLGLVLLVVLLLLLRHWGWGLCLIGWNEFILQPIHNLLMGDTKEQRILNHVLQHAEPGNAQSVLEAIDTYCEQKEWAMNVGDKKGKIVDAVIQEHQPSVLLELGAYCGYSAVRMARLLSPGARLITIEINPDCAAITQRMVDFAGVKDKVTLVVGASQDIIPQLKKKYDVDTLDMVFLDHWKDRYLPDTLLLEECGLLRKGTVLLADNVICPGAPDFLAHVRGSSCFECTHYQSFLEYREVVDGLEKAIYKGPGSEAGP
Format: biochemical

| IC50 | SMILES |
| --- | --- |
| 64 nM | COc1ccc(-c2nc3cc(-n4ccc(=O)c(O)c4)ccc3[nH]2)cc1 [Example 2, 3-hydroxy-1-[2-(4-methoxyphenyl)-1H-benzimidazol-5-yl]pyridin-4(1H)-one] |

Same assay, conditions: Esculetin or Fluorescence Polarization assay; human Val158 variant; read-out: MB-COMT IC50-

| SMILES | IC50 |
| --- | --- |
| Nc1cc(=O)c(O)cn1-c1cccc(-c2ccccc2)c1 [Example 3, 2-Amino-1-(biphenyl-3-yl)-5-hydroxypyridin-4(1H)-one] | 75 nM |
| CNc1cc(=O)c(O)cn1-c1cccc(-c2ccccc2)c1 [Example 4, 1-(Biphenyl-3-yl)-5-hydroxy-2-(methylamino)pyridin-4(1H)-one] | 100 nM |
| Cc1cc(=O)c(O)cn1-c1cccc2c1ncn2Cc1c(F)cccc1Cl [Example 10, 1-[1-(2-Chloro-6-fluorobenzyl)-1H-benzimidazol-4-yl]-5-hydroxy-2-methylpyridin-4(1H)-one] | 191 nM |
| COc1ncc(F)cc1C(O)Cc1cc(=O)c(O)cn1-c1cccc(-c2ccccc2)c1 (centres unmarked) [Example 11, 1-biphenyl-3-yl-2-[2-(5-fluoro-2-methoxypyridin-3-yl)-2-hydroxyethyl]-5-hydroxypyridin-4(1H)-one] | 87 nM |
| CC(O)c1cc(=O)c(O)cn1-c1cccc(-c2cncc3ccccc23)c1 (centres unmarked) [Example 14, 5-hydroxy-2-(1-hydroxyethyl)-1-[3-(isoquinolin-4-yl)phenyl]pyridin-4(1H)-one] | 226 nM |

Next, values leading:

| IC50 | SMILES |
| --- | --- |
| 41 nM | CC(O)c1cc(=O)c(O)cn1-c1cccc(-c2c(Cl)cnc3[nH]ccc23)c1 (single isomer, unassigned) [Example 13, 1-[3-(5-chloro-1H-pyrrolo[2,3-b]pyridin-4-yl)phenyl]-5-hydroxy-2-(1-hydroxyethyl)-pyridin-4(1H)-one] |
| 21 nM | O=c1ccn(-c2cccc(-c3cccc4[nH]ncc34)n2)cc1O [Example 8, 3-Hydroxy-6′-(1H-indazol-4-yl)-4H-1,2′-bipyridin-4-one] |
| 8 nM | O=c1ccn(-c2nccc(-c3c(Cl)cnc4[nH]ccc34)c2F)cc1O [Example 9, 4′-(5-chloro-1H-pyrrolo[2,3-b]pyridin-4-yl)-3′-fluoro-3-hydroxy-4H-1,2′-bipyridin-4-one] |
| 26 nM | O=c1cc(C(O)C#Cc2ccccc2)n(-c2cccc(-c3c(Cl)cnc4[nH]ccc34)c2)cc1O (centres unmarked) [Example 12, 1-[3-(5-chloro-1H-pyrrolo[2,3-b]pyridin-4-yl)phenyl]-5-hydroxy-2-(1-hydroxy-3-phenylprop-2-yn-1-yl)pyridin-4(1H)-one] |
| 70 nM | O=c1cc(C(O)C(F)(F)F)n(-c2cccc(-c3cccc4ncccc34)c2)cc1O (centres unmarked) [Example 15, 5-hydroxy-1-[3-(quinolin-5-yl)phenyl]-2-(2,2,2-trifluoro-1-hydroxyethyl)pyridin-4(1H)-one] |
